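A five-concentration, 48-hour dose response in 96-well plates underlies each endpoint, interpolated linearly between surrounding concentrations. GI50: concentration for 50% inhibition of growth. Definition used: TGI = concentration required for complete inhibition of growth.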
Experiments:
Assay in all cases: NCI-60 cell line screen, 48 h
[1] = test system: M14 melanoma
[2] = test system: UACC-257 melanoma
[3] = test system: UO-31 renal
[4] = test system: SN12C renal
[5] = test system: CAKI-1 renal
[6] = test system: SR leukemia
[7] = test system: HOP-92 NSCLC
[8] = test system: NCI-H23 lung
[9] = test system: HS 578T breast
[10] = test system: MDA-MB-231 breast
[11] = test system: SK-MEL-2 melanoma
[12] = test system: HCT-116 colon
[13] = test system: BT-549 breast
[14] = test system: SNB-19 CNS
[15] = test system: UACC-62 melanoma
[16] = test system: MOLT-4 leukemia
[17] = test system: EKVX NSCLC
[18] = test system: PC-3 prostate
[19] = test system: IGROV1 ovarian
[20] = test system: CCRF-CEM leukemia
[21] = test system: U251 CNS
[22] = test system: MALME-3M melanoma
[23] = test system: LOX IMVI melanoma
[24] = test system: HCT-15 colon
[25] = test system: K-562 leukemia
[26] = test system: OVCAR-4 ovarian
[27] = test system: OVCAR-8 ovarian
[28] = test system: RPMI-8226 leukemia
[29] = test system: SK-MEL-5 melanoma
[30] = test system: HL-60(TB) leukemia
[31] = test system: SF-268 CNS
[32] = test system: NCI-H460 lung
[33] = test system: SK-OV-3 ovarian
[34] = test system: NCI-H522 lung
[35] = test system: RXF 393 renal
[36] = test system: DU-145 prostate
[37] = test system: TK-10 renal
[38] = test system: A498 renal
[39] = test system: SF-295 CNS
[40] = test system: 786-0 renal
[41] = test system: HCC-2998 colon
[42] = test system: HT29 colon
[43] = test system: ACHN renal
[44] = test system: MCF7 breast
[45] = test system: SNB-75 CNS
[46] = test system: NCI/ADR-RES ovarian
[47] = test system: A549 NSCLC
[48] = test system: HOP-62 NSCLC
[49] = test system: SK-MEL-28 melanoma
[50] = test system: COLO 205 colon
[51] = test system: OVCAR-5 ovarian
[52] = test system: SW-620 colon
[53] = test system: KM12 colon
[54] = test system: T-47D breast

## COc1cc(OC)c(/C=C/S(=O)(=O)Cc2ccc(OC)c(NCC(=O)NO)c2)c(OC)c1
[1]
  GI50: 0.022 µM
  TGI: > 100 µM
[2]
  GI50: > 100 µM
  TGI: > 100 µM
[3]
  GI50: 0.0723 µM
  TGI: > 100 µM
[4]
  GI50: 0.0555 µM
  TGI: > 100 µM
[5]
  GI50: < 0.01 µM
  TGI: > 100 µM
[6]
  GI50: < 0.0104 µM
  TGI: > 100 µM
[7]
  GI50: 0.0777 µM
  TGI: > 100 µM
[8]
  GI50: 0.0414 µM
  TGI: > 100 µM
[9]
  GI50: < 0.0142 µM
  TGI: > 100 µM
[10]
  GI50: 0.0457 µM
  TGI: > 100 µM
[11]
  GI50: > 100 µM
  TGI: > 100 µM
[12]
  GI50: 0.0198 µM
[13]
  GI50: 0.0221 µM
[14]
  GI50: 0.0434 µM
  TGI: > 100 µM
[15]
  GI50: < 0.01 µM
  TGI: > 100 µM
[16]
  GI50: 0.0415 µM
  TGI: > 100 µM
[17]
  GI50: 0.058 µM
  TGI: > 100 µM
[18]
  GI50: 0.0285 µM
  TGI: > 100 µM
[19]
  GI50: 0.0241 µM
  TGI: > 100 µM
[20]
  GI50: 0.041 µM
  TGI: > 100 µM
[21]
  GI50: 0.0355 µM
  TGI: > 100 µM
[22]
  GI50: > 100 µM
  TGI: > 100 µM
[23]
  GI50: < 0.01 µM
  TGI: > 100 µM
[24]
  GI50: 0.0131 µM
  TGI: > 100 µM
[25]
  GI50: < 0.01 µM
  TGI: > 100 µM
[26]
  GI50: 46.1 µM
  TGI: > 100 µM
[27]
  GI50: 0.0356 µM
  TGI: > 100 µM
[28]
  GI50: 0.045 µM
  TGI: > 100 µM
[29]
  GI50: 0.0185 µM
  TGI: 0.182 µM
[30]
  GI50: 0.0191 µM
  TGI: 0.0593 µM
[31]
  GI50: 0.0863 µM
  TGI: > 100 µM
[32]
  GI50: 0.0256 µM
  TGI: > 100 µM
[33]
  GI50: 0.0697 µM
  TGI: > 100 µM
[34]
  GI50: < 0.01 µM
[35]
  GI50: < 0.011 µM
  TGI: > 100 µM
[36]
  GI50: 0.0395 µM
  TGI: > 100 µM
[37]
  GI50: > 100 µM
  TGI: > 100 µM
[38]
  GI50: < 0.01 µM
  TGI: 0.101 µM
[39]
  GI50: < 0.01 µM
  TGI: > 100 µM
[40]
  GI50: 0.0409 µM
  TGI: > 100 µM
[41]
  GI50: 0.0346 µM
  TGI: > 100 µM
[42]
  GI50: 0.0368 µM
  TGI: 4.84 µM
[43]
  GI50: < 0.0152 µM
  TGI: > 100 µM
[44]
  GI50: 0.0142 µM
  TGI: > 100 µM
[45]
  GI50: < 0.01 µM
  TGI: 0.0726 µM
[46]
  GI50: < 0.01 µM
  TGI: > 100 µM
[47]
  GI50: 0.0364 µM
  TGI: > 100 µM
[48]
  GI50: 0.0472 µM
  TGI: > 100 µM
[49]
  GI50: > 23.7 µM
  TGI: > 100 µM
[50]
  GI50: 0.0316 µM
  TGI: 0.119 µM
[51]
  GI50: 0.0535 µM
  TGI: > 100 µM
[52]
  GI50: 0.0279 µM
  TGI: > 100 µM
[53]
  GI50: 0.0105 µM
  TGI: > 100 µM
[54]
  GI50: 17.8 µM
  TGI: > 100 µM

Source: PubChem BioAssay (NCI)
